Reference: patent publication US20120122860A1, “SOLID FORMS OF SULFONAMIDES AND AMINO ACIDS” (Plexxikon, Inc., priority 2009, published 2012)

Legend:
[1] = target: C-Raf (Homo sapiens, UniProt P04049); experiment: Kinase activity assay, C-Raf
[2] = target: B-Raf (Homo sapiens, UniProt P15056); experiment: Kinase activity assay, B-Raf; format: biochemical; conditions: read-out: activity toward kinase B-Raf, IC50
[3] = target: B-Raf V600E (Homo sapiens, UniProt P15056, V600E); experiment: Kinase activity assay, B-Raf V600E; format: biochemical; conditions: read-out: activity toward kinase B-Raf V600E, IC50
B-Raf V600E, sequence (P15056 whole entry V600E): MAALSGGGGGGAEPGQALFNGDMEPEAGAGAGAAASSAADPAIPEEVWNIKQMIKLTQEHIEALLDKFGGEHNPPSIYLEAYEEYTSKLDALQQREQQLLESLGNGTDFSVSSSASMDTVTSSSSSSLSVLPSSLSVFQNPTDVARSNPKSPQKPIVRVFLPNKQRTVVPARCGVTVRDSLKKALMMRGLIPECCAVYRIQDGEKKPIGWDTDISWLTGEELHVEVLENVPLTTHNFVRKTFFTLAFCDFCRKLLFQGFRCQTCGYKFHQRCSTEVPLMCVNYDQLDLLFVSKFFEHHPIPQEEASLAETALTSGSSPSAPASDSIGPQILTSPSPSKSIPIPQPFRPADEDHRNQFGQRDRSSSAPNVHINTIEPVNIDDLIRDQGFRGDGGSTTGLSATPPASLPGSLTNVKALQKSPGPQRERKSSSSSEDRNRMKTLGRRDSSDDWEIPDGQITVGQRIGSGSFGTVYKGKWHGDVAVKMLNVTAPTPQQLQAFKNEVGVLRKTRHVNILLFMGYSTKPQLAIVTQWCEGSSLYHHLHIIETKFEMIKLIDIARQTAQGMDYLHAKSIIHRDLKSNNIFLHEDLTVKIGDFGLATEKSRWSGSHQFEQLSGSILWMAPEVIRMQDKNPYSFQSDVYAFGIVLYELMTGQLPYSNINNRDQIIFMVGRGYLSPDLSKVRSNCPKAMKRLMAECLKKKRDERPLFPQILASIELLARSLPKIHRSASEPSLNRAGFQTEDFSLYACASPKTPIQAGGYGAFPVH

[4] = target: Src (Homo sapiens, UniProt P12931); experiment: Kinase activity assay, Src
Src, sequence (P12931 whole entry): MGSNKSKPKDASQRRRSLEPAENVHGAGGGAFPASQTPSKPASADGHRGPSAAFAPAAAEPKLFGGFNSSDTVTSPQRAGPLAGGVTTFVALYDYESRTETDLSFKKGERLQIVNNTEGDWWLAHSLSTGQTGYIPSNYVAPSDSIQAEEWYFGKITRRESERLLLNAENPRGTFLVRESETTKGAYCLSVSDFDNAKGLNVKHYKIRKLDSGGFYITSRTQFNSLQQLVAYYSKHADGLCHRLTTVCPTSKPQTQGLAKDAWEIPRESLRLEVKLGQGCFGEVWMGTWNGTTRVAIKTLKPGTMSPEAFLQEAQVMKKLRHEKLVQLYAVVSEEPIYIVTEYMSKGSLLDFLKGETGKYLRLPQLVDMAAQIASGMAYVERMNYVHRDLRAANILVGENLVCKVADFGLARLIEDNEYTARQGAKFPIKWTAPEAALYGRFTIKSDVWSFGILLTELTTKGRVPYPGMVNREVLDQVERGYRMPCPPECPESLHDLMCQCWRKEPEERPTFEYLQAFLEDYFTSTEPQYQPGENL

[5] = target: T1, A-Raf (Homo sapiens, UniProt P10398); experiment: Kinase activity assay, A-Raf
T1 sequence (P10398 1-606): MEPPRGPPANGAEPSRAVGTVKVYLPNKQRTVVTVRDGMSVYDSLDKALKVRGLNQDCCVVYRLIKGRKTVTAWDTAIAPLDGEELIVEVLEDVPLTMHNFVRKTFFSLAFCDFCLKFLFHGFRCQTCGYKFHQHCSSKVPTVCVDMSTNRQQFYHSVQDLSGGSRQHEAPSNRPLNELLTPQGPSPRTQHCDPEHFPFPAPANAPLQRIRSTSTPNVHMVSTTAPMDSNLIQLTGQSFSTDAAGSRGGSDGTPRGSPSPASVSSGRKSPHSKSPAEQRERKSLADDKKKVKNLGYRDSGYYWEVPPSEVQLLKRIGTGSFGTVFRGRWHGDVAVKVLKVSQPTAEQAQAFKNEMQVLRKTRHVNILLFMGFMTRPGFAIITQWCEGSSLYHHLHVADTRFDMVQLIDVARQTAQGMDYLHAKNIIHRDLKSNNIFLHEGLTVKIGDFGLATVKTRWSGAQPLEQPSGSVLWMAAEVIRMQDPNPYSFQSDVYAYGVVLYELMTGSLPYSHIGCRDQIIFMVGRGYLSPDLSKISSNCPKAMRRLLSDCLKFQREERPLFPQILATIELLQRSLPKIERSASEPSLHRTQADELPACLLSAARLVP

[6] = target: Kit (Homo sapiens, UniProt P10721); experiment: Kinase activity assay, Kit
Kit, sequence (P10721 26-976): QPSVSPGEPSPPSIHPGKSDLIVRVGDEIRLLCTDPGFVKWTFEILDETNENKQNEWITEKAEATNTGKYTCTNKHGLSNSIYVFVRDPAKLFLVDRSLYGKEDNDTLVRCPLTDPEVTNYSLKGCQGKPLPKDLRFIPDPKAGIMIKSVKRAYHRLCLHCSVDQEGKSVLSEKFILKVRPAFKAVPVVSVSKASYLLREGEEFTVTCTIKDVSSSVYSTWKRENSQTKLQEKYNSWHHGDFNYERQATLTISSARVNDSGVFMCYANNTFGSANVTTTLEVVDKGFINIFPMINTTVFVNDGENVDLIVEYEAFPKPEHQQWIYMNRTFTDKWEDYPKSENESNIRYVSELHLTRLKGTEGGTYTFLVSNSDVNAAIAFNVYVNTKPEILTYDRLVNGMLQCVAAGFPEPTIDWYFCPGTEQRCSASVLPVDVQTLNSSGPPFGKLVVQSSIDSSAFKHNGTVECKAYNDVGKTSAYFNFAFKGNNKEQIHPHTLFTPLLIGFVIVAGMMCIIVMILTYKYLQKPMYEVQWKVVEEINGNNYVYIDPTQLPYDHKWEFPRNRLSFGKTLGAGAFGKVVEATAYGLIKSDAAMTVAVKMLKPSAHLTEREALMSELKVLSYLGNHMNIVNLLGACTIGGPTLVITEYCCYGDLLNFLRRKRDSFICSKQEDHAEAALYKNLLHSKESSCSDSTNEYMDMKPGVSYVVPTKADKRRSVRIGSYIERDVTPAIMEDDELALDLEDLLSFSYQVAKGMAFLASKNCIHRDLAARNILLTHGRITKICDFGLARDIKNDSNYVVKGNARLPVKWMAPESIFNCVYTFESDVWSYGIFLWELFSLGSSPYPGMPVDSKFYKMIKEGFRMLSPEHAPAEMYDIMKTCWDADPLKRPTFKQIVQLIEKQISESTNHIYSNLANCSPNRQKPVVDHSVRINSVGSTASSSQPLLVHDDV

[7] = target: Kdr (Homo sapiens, UniProt P35968); experiment: Kinase activity assay, Kdr
Kdr, sequence (P35968 20-1356): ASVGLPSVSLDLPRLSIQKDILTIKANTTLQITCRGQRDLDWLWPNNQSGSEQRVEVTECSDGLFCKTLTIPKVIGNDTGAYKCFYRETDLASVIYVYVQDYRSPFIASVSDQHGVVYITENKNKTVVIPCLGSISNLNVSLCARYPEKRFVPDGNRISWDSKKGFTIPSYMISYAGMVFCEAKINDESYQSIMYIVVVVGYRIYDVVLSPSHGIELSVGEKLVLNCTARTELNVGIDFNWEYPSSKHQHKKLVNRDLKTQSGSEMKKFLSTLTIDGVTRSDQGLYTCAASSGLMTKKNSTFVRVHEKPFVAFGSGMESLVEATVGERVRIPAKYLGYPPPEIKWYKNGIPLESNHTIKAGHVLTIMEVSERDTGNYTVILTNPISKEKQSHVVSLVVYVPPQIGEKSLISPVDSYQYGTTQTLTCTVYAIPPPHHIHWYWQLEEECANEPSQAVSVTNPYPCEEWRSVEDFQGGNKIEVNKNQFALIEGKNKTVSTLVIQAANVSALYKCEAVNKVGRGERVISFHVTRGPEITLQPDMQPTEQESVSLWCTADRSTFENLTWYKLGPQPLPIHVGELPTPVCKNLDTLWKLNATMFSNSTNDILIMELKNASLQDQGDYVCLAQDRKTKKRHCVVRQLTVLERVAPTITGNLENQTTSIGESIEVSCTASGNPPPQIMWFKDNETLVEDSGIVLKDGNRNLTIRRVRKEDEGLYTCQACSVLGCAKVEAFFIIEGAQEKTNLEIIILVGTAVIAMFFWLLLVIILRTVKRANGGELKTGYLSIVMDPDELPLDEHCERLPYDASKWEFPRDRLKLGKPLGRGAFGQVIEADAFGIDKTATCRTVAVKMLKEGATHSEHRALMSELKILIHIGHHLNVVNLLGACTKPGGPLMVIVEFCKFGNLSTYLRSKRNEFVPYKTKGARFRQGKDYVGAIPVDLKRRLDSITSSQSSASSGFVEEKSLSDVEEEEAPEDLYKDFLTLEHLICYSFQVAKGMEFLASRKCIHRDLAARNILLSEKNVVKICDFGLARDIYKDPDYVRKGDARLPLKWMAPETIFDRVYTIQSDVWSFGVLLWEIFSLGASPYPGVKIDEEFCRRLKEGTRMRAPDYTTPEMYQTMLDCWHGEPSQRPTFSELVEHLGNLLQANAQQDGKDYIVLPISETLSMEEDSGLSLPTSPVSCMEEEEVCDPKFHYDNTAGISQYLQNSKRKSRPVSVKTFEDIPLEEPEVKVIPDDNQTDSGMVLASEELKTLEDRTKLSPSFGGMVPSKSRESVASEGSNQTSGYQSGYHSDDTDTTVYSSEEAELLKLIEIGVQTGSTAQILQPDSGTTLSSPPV

Measured: IC50

C-Raf, sequence (P04049 whole entry): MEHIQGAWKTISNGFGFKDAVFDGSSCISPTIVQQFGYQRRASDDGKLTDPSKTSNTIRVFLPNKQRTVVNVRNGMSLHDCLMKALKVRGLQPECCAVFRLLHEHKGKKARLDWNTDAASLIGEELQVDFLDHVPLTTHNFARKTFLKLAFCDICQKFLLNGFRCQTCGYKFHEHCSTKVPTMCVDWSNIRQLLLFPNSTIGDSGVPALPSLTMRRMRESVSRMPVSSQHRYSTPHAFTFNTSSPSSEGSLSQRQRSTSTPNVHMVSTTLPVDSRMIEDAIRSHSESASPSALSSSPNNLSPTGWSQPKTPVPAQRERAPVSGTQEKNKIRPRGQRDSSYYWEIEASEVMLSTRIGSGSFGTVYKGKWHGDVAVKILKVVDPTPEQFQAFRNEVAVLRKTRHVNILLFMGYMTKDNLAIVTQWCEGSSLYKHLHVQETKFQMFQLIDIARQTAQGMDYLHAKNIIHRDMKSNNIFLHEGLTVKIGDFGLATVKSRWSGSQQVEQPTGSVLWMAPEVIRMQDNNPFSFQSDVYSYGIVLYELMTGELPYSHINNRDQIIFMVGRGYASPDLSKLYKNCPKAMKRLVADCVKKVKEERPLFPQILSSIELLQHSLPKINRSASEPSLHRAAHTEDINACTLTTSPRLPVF
B-Raf, sequence (P15056 whole entry): as the sequence (P15056 whole entry V600E) above, with E600V counted along it

N#Cc1ccnc2[nH]cc(C(=O)c3c(F)ccc(NS(=O)(=O)c4ccccn4)c3F)c12 [P-2078, Pyridine-2-sulfonic acid [3-(4-cyano-1H-pyrrolo[2,3-b]pyridine-3-carbonyl)-2,4-difluoro-phenyl]-amide]
not listed: [6] | [7]
≤ 10 µM: all other assays above

N#Cc1ccnc2[nH]cc(C(=O)c3c(F)ccc(NS(=O)(=O)CC(F)(F)F)c3F)c12 [P-2341, 2,2,2-Trifluoro-ethanesulfonic acid [3-(4-cyano-1H-pyrrolo[2,3-b]pyridine-3-carbonyl)-2,4-difluoro-phenyl]-amide]
not listed: [7]
≤ 10 µM: all other assays above

CCCC(C)S(=O)(=O)Nc1ccc(F)c(C(=O)c2c[nH]c3nccc(OC)c23)c1F (stereo not shown) [P-2316, Pentane-2-sulfonic acid [2,4-difluoro-3-(4-methoxy-1H-pyrrolo[2,3-b]pyridine-3-carbonyl)-phenyl]-amide]
≤ 10 µM: [3] | [4] | [5]

N#Cc1cnc2[nH]cc(C(=O)c3cccc(NS(=O)(=O)c4ccc(C(F)(F)F)cc4)c3F)c2c1 [P-2057, N-[3-(5-Cyano-1H-pyrrolo[2,3-b]pyridine-3-carbonyl)-2-fluoro-phenyl]-4-trifluoromethyl-benzenesulfonamide]
not listed: [6] | [7]
≤ 10 µM: all other assays above

CCC(C)S(=O)(=O)Nc1ccc(F)c(C(=O)c2c[nH]c3nccc(Cl)c23)c1F (stereo not shown) [P-2319, Butane-2-sulfonic acid [3-(4-chloro-1H-pyrrolo[2,3-b]pyridine-3-carbonyl)-2,4-difluoro-phenyl]-amide]
not listed: [2]
≤ 10 µM: all other assays above

O=C(c1c(F)ccc(NS(=O)(=O)C2CCCC2)c1F)c1c[nH]c2nccc(Cl)c12 [P-2368, Cyclopentanesulfonic acid [3-(4-chloro-1H-pyrrolo[2,3-b]pyridine-3-carbonyl)-2,4-difluoro-phenyl]-amide]
not listed: [6] | [7]
≤ 10 µM: all other assays above

N#Cc1cnc2[nH]cc(C(=O)c3c(F)ccc(NS(=O)(=O)CC(F)(F)F)c3F)c2c1 [P-2336, 2,2,2-Trifluoro-ethanesulfonic acid [3-(5-cyano-1H-pyrrolo[2,3-b]pyridine-3-carbonyl)-2,4-difluoro-phenyl]-amide]
not listed: [6] | [7]
≤ 10 µM: all other assays above

Cc1cnc2[nH]cc(C(=O)c3c(F)ccc(NS(=O)(=O)N4CCOCC4)c3F)c2c1 [P-2392, Morpholine-4-sulfonic acid [2,4-difluoro-3-(5-methyl-1H-pyrrolo[2,3-b]pyridine-3-carbonyl)-phenyl]-amide]
not listed: [2] | [7]
≤ 10 µM: all other assays above

COc1ccnc2[nH]cc(C(=O)c3c(F)ccc(NS(=O)(=O)N4CCOCC4)c3F)c12 [P-2396, Morpholine-4-sulfonic acid [2,4-difluoro-3-(4-methoxy-1H-pyrrolo[2,3-b]pyridine-3-carbonyl)-phenyl]-amide]
not listed: [6] | [7]
≤ 10 µM: all other assays above

COc1cnc2[nH]cc(C(=O)c3c(F)ccc(NS(=O)(=O)N4CCOCC4)c3F)c2c1 [P-2391, Morpholine-4-sulfonic acid [2,4-difluoro-3-(5-methoxy-1H-pyrrolo[2,3-b]pyridine-3-carbonyl)-phenyl]-amide]
not listed: [2] | [7]
≤ 10 µM: all other assays above

N#Cc1ccnc2[nH]cc(C(=O)c3c(F)ccc(NS(=O)(=O)C4CCCCC4)c3F)c12 [P-2369, Cyclohexanesulfonic acid [3-(4-cyano-1H-pyrrolo[2,3-b]pyridine-3-carbonyl)-2,4-difluoro-phenyl]-amide]
not listed: [7]
≤ 10 µM: all other assays above

O=C(c1c(F)ccc(NS(=O)(=O)N2CCOCC2)c1F)c1c[nH]c2nccc(Cl)c12 [P-2397, Morpholine-4-sulfonic acid [3-(4-chloro-1H-pyrrolo[2,3-b]pyridine-3-carbonyl)-2,4-difluoro-phenyl]-amide]
not listed: [6] | [7]
≤ 10 µM: all other assays above

CC(C)CS(=O)(=O)Nc1ccc(F)c(C(=O)c2c[nH]c3nccc(Cl)c23)c1F [P-2318, 2-Methyl-propane-1-sulfonic acid [3-(4-chloro-1H-pyrrolo[2,3-b]pyridine-3-carbonyl)-2,4-difluoro-phenyl]-amide]
not listed: [7]
≤ 10 µM: all other assays above

COc1ccnc2[nH]cc(C(=O)c3c(F)ccc(NS(=O)(=O)C4CCC4)c3F)c12 [P-2364, Cyclobutanesulfonic acid [2,4-difluoro-3-(4-methoxy-1H-pyrrolo[2,3-b]pyridine-3-carbonyl)-phenyl]-amide]
not listed: [6]
≤ 10 µM: all other assays above

N#Cc1ccnc2[nH]cc(C(=O)c3c(F)ccc(NS(=O)(=O)c4cccc(F)c4)c3F)c12 [P-2039, N-[3-(4-Cyano-1H-pyrrolo[2,3-b]pyridine-3-carbonyl)-2,4-difluoro-phenyl]-3-fluoro-benzenesulfonamide]
not listed: [7]
≤ 10 µM: all other assays above

CCC(C)S(=O)(=O)Nc1ccc(F)c(C(=O)c2c[nH]c3nccc(C#N)c23)c1F (stereo not shown) [P-2321, Butane-2-sulfonic acid [3-(4-cyano-1H-pyrrolo[2,3-b]pyridine-3-carbonyl)-2,4-difluoro-phenyl]-amide]
not listed: [6]
≤ 10 µM: all other assays above

CCN(CC)S(=O)(=O)Nc1ccc(F)c(C(=O)c2c[nH]c3ncc(Cl)cc23)c1F [P-2384, N,N-diethylamino-sulfonic acid [3-(5-chloro-1H-pyrrolo[2,3-b]pyridine-3-carbonyl)-2,4-difluoro-phenyl]-amide]
not listed: [1] | [2]
≤ 10 µM: all other assays above

CCN(CC)S(=O)(=O)Nc1ccc(F)c(C(=O)c2c[nH]c3ncc(OC)cc23)c1F [P-2389, N,N-diethylamino-sulfonic acid [2,4-difluoro-3-(5-methoxy-1H-pyrrolo[2,3-b]pyridine-3-carbonyl)-phenyl]-amide]
not listed: [1] | [2]
≤ 10 µM: all other assays above

N#Cc1ccnc2[nH]cc(C(=O)c3c(F)ccc(NS(=O)(=O)CCC(F)(F)F)c3F)c12 [P-2332, 3,3,3-Trifluoro-propane-1-sulfonic acid [3-(4-cyano-1H-pyrrolo[2,3-b]pyridine-3-carbonyl)-2,4-difluoro-phenyl]-amide]
not listed: [6] | [7]
≤ 10 µM: all other assays above

Cc1cnc2[nH]cc(C(=O)c3c(F)ccc(NS(=O)(=O)C4CCCC4)c3F)c2c1 [P-2365, Cyclopentanesulfonic acid [2,4-difluoro-3-(5-methyl-1H-pyrrolo[2,3-b]pyridine-3-carbonyl)-phenyl]-amide]
not listed: [2]
≤ 10 µM: all other assays above

CC(C)S(=O)(=O)Nc1ccc(F)c(C(=O)c2c[nH]c3nccc(Cl)c23)c1F [P-2284, Propane-2-sulfonic acid [3-(4-chloro-1H-pyrrolo[2,3-b]pyridine-3-carbonyl)-2,4-difluoro-phenyl]-amide]
≤ 10 µM: [1] | [3] | [4] | [5]

N#Cc1cnc2[nH]cc(C(=O)c3cccc(NS(=O)(=O)c4ccccc4)c3F)c2c1 [P-2056, N-[3-(5-Cyano-1H-pyrrolo[2,3-b]pyridine-3-carbonyl)-2-fluoro-phenyl]-benzenesulfonamide]
not listed: [6] | [7]
≤ 10 µM: all other assays above
